US8173788B2, “Peptide having ability to activate cancer-related gene” (priority 2005, dated 2012)

System: human normal peripheral blood monocyte
Assay: Influence of the artificially synthesized peptide on normal cell genes: coculture 7 hr, DNA chip system (Clontech), about 55000 human genes (Table 4)
Assay type: cell-based
Description: (a) The peptide obtained in Example 3 was added to a human normal peripheral blood monocyte culture system (10 to 100 μg peptide/1×10^6 to 1×10^7 monocytes), and they were cocultured for 7 hr. Then, mRNA was extracted from the monocytes and was applied to analysis for up-regulation and down-regulation in respect to about 55000 human genes by using DNA chip system (Clontech).

[1] = Enhanced Gene, Immune System Gene, Gene No. 21607, colony stimulating factor 1 (macrophage) (CSF1), transcript variant 1
[2] = Enhanced Gene, Immune System Gene, Gene No. 22100, IL5-CI0001-181000-178-f03 CI0001 Homo sapiens cDNA
[3] = Enhanced Gene, Immune System Gene, Gene No. 22254, interleukin 4 (IL4), transcript variant 1
[4] = Enhanced Gene, Immune System Gene, Gene No. 25767, tumor necrosis factor (TNF superfamily, member 2) (TNF)
[5] = Enhanced Gene, Immune System Gene, Gene No. 28615, IL3-UT0117-080301-496-D07 UT0117 Homo sapiens cDNA
[6] = Enhanced Gene, Immune System Gene, Gene No. 29703, chemokine (C—X—C motif) ligand 9 (CXCL9)
[7] = Enhanced Gene, Immune System Gene, Gene No. 45170, transforming growth factor beta 1 induced transcript 1 (TGFB1I1)
[8] = Enhanced Gene, Immune System Gene, Gene No. 51904, interleukin 1 family, member 8 (eta) (IL1F8), transcript variant 1
[9] = Enhanced Gene, Oncogene, Gene No. 2183, neuro-oncological ventral antigen 1 (NOVA1), transcript variant 1
[10] = Enhanced Gene, Oncogene, Gene No. 3642, RAB2, member RAS oncogene family (RAB2)
[11] = Enhanced Gene, Oncogene, Gene No. 3858, preferentially expressed antigen in melanoma (PRAME), transcript variant 3
[12] = Enhanced Gene, Oncogene, Gene No. 4210, RAS-like, family 11, member A (RASL11A)
[13] = Enhanced Gene, Oncogene, Gene No. 6231, breast carcinoma amplified sequence 1 (BCAS1)
[14] = Enhanced Gene, Oncogene, Gene No. 6329, mutated in colorectal cancers (MCC)
[15] = Enhanced Gene, Oncogene, Gene No. 7394, HELA CELLS COT 25-NORMALIZED cDNA clone CS0DK007YM05 3-PRIME
[16] = Enhanced Gene, Oncogene, Gene No. 8431, Ras-associated protein Rap1 (RBJ)
[17] = Enhanced Gene, Oncogene, Gene No. 8440, mab-21-like 2 (C elegans) (MAB21L2)
[18] = Enhanced Gene, Oncogene, Gene No. 14195, B-cell translocation gene 4 (BTG4)
[19] = Enhanced Gene, Oncogene, Gene No. 18829, v-myc myelocytomatosis viral related oncogene, neuroblastoma derived (avian) (MYCN)
[20] = Enhanced Gene, Oncogene, Gene No. 21713, zn87b11y5 Stratagene lung carcinoma 937218 cDNA clone IMAGE: 565149 5′
[21] = Enhanced Gene, Oncogene, Gene No. 22388, zb91f05s1 Soares_parathyroid_tumor NbHPA cDNA clone IMAGE: 320193 3′
[22] = Enhanced Gene, Oncogene, Gene No. 22675, endogenous retroviral family W, env(C7), member 1 (syncytin) (ERVWE1), mRNA
[23] = Enhanced Gene, Oncogene, Gene No. 24910, platelet-derived growth factor beta polypeptide (simian sarcoma viral (v-sis) oncogene homolog) (PDGFB), transcript variant 2
[24] = Enhanced Gene, Oncogene, Gene No. 29317, T-cell leukemia/lymphoma 6 (TCL6), transcript variant TCL6a1
[25] = Enhanced Gene, Oncogene, Gene No. 32050, disrupted in renal carcinoma 1 (DIRC1)
[26] = Enhanced Gene, Oncogene, Gene No. 34854, NEUROBLASTOMA COT 25-NORMALIZED cDNA clone CS0DC018YE24 3-PRIME
[27] = Enhanced Gene, Oncogene, Gene No. 34979, yu38e06r1 Soares ovary tumor NbHOT cDNA clone IMAGE: 236098 5′
[28] = Enhanced Gene, Oncogene, Gene No. 36631, RAB43, member RAS oncogene family (RAB43), mRNA
[29] = Enhanced Gene, Oncogene, Gene No. 37781, NEUROBLASTOMA COT 25-NORMALIZED cDNA clone CS0DC011YD03 5-PRIME
[30] = Enhanced Gene, Oncogene, Gene No. 38566, RAS protein activator like 2, mRNA (cDNA clone IMAGE: 5399841), with apparent retained intron
[31] = Enhanced Gene, Oncogene, Gene No. 46997, clone N11 NTera2D1 teratocarcinoma mRNA
[32] = Suppressed Gene, Cancer Suppressing Gene, Gene No. 8280, brain specific protein (CGI-38)
[33] = Suppressed Gene, Cancer Suppressing Gene, Gene No. 11261, breast cancer metastasis suppressor 1 (BRMS1)
[34] = Suppressed Gene, Cancer Suppressing Gene, Gene No. 11438, serologically defined breast cancer antigen 84 (SDBCAG84), transcript variant 1
[35] = Suppressed Gene, Cancer Suppressing Gene, Gene No. 30909, tumor rejection antigen (gp96) 1 (TRA1)
[36] = Suppressed Gene, Cancer Suppressing Gene, Gene No. 35687, heat shock protein 75 (TRAP1)
[37] = Suppressed Gene, Cancer Suppressing Gene, Gene No. 36334, heat shock 70 kDa protein 14 (HSPA14)
[38] = Suppressed Gene, Cancer Suppressing Gene, Gene No. 37600, AHA1, activator of heat shock 90 kDa protein ATPase homolog 1 (yeast) (AHSA1)
[39] = Suppressed Gene, Cancer Suppressing Gene, Gene No. 50395, Ras suppressor protein 1 (RSU1), transcript variant 1
[40] = Suppressed Gene, Cancer Suppressing Gene, Gene No. 52111, leukemia cell normalized cDNA library cDNA clone LEU1757_26_C2
[41] = Suppressed Gene, Immune System Gene, Gene No. 4403, programmed cell death 4 (neoplastic transformation inhibitor) (PDCD4), transcript variant 2
[42] = Suppressed Gene, Immune System Gene, Gene No. 4899, interferon (alpha, beta and omega) receptor 2 (IFNAR2), transcript variant 1
[43] = Suppressed Gene, Immune System Gene, Gene No. 8634, perform 1 (pore forming protein) (PRF1)
[44] = Suppressed Gene, Immune System Gene, Gene No. 8922, interferon induced transmembrane protein 1 (9-27) (IFITM1)
[45] = Suppressed Gene, Immune System Gene, Gene No. 9938, interleukin 17D (IL17D)
[46] = Suppressed Gene, Immune System Gene, Gene No. 10204, interferon-related developmental regulator 1 (IFRD1)
[47] = Suppressed Gene, Immune System Gene, Gene No. 10791, HLA-B associated transcript 5 (BAT5)
[48] = Suppressed Gene, Immune System Gene, Gene No. 11236, natural killer cell group 7 sequence (NKG7), mRNA
[49] = Suppressed Gene, Immune System Gene, Gene No. 11635, thymosin, beta 4, Y-linked (TMSB4Y)

Substance: the Peptide (QPQFGRRMESK; Human squamous cell carcinoma)
- Enhancement Ratio [1]: 7.233
- Expression Amount after Treatment with the Peptide [1]: 24.93
- Enhancement Ratio [2]: 1.853
- Expression Amount after Treatment with the Peptide [2]: 608.5
- Enhancement Ratio [3]: 4.547
- Expression Amount after Treatment with the Peptide [3]: 122.7
- Enhancement Ratio [4]: 37.72
- Expression Amount after Treatment with the Peptide [4]: 4927
- Enhancement Ratio [5]: 7.555
- Expression Amount after Treatment with the Peptide [5]: 20.69
- Enhancement Ratio [6]: 30.05
- Expression Amount after Treatment with the Peptide [6]: 19.83
- Enhancement Ratio (Enhanced Gene, Immune System Gene, Gene No. 30707, immunoglobulin superfamily, member 4C (IGSF4C)): 7.379
- Enhancement Ratio [7]: 2.225
- Expression Amount after Treatment with the Peptide [7]: 85.26
- Enhancement Ratio [8]: 4.932
- Expression Amount after Treatment with the Peptide [8]: 11.37
- Enhancement Ratio [9]: 2.53
- Expression Amount after Treatment with the Peptide [9]: 8.623
- Enhancement Ratio [10]: 2.032
- Expression Amount after Treatment with the Peptide [10]: 3307
- Enhancement Ratio [11]: 2.462
- Expression Amount after Treatment with the Peptide [11]: 22.62
- Enhancement Ratio [12]: 6.36
- Expression Amount after Treatment with the Peptide [12]: 393.7
- Enhancement Ratio [13]: 9.349
- Expression Amount after Treatment with the Peptide [13]: 5.453
- Enhancement Ratio [14]: 1.786
- Expression Amount after Treatment with the Peptide [14]: 67.54
- Enhancement Ratio [15]: 11.83
- Expression Amount after Treatment with the Peptide [15]: 350.3
- Enhancement Ratio [16]: 2.435
- Expression Amount after Treatment with the Peptide [16]: 18.61
- Enhancement Ratio [17]: 2.175
- Expression Amount after Treatment with the Peptide [17]: 15.71
- Enhancement Ratio [18]: 2.567
- Expression Amount after Treatment with the Peptide [18]: 7.219
- Enhancement Ratio [19]: 2.225
- Expression Amount after Treatment with the Peptide [19]: 15.32
- Enhancement Ratio [20]: 45.9
- Expression Amount after Treatment with the Peptide [20]: 7.742
- Enhancement Ratio [21]: 9.47
- Expression Amount after Treatment with the Peptide [21]: 571.2
- Enhancement Ratio [22]: 2.498
- Expression Amount after Treatment with the Peptide [22]: 204.4
- Enhancement Ratio [23]: 1.898
- Expression Amount after Treatment with the Peptide [23]: 55.05
- Enhancement Ratio [24]: 3.478
- Expression Amount after Treatment with the Peptide [24]: 10.06
- Enhancement Ratio [25]: 28.44
- Expression Amount after Treatment with the Peptide [25]: 9.806
- Enhancement Ratio [26]: 26.92
- Expression Amount after Treatment with the Peptide [26]: 1.098
- Enhancement Ratio [27]: 9.116
- Expression Amount after Treatment with the Peptide [27]: 24.17
- Enhancement Ratio [28]: 5.871
- Expression Amount after Treatment with the Peptide [28]: 417.5
- Enhancement Ratio [29]: 12.79
- Expression Amount after Treatment with the Peptide [29]: 32.41
- Enhancement Ratio [30]: 1.982
- Expression Amount after Treatment with the Peptide [30]: 14.55
- Enhancement Ratio [31]: 21.14
- Expression Amount after Treatment with the Peptide [31]: 236.2
- Expression Amount after Treatment with the Peptide [32]: 9
- Suppression Ratio [32]: 84.27
- Expression Amount after Treatment with the Peptide [33]: 6.257
- Suppression Ratio [33]: 60.59
- Expression Amount after Treatment with the Peptide [34]: 14.74
- Suppression Ratio [34]: 81.87
- Expression Amount after Treatment with the Peptide [35]: 11.47
- Suppression Ratio [35]: 86.08
- Expression Amount after Treatment with the Peptide [36]: 0.2252
- Suppression Ratio [36]: 461.4
- Expression Amount after Treatment with the Peptide [37]: 2.08
- Suppression Ratio [37]: 164.2
- Expression Amount after Treatment with the Peptide [38]: 8.429
- Suppression Ratio [38]: 116.6
- Expression Amount after Treatment with the Peptide [39]: 8.763
- Suppression Ratio [39]: 53.66
- Expression Amount after Treatment with the Peptide [40]: 13.6
- Suppression Ratio [40]: 43.65
- Expression Amount after Treatment with the Peptide [41]: 21.97
- Suppression Ratio [41]: 40.6
- Expression Amount after Treatment with the Peptide [42]: 4.5
- Suppression Ratio [42]: 119.2
- Expression Amount after Treatment with the Peptide [43]: 10.2
- Suppression Ratio [43]: 92.95
- Expression Amount after Treatment with the Peptide [44]: 110.9
- Suppression Ratio [44]: 98.91
- Expression Amount after Treatment with the Peptide [45]: 0.3
- Suppression Ratio [45]: 39.28
- Expression Amount after Treatment with the Peptide [46]: 9.714
- Suppression Ratio [46]: 71.65
- Expression Amount after Treatment with the Peptide [47]: 3.429
- Suppression Ratio [47]: 150.9
- Expression Amount after Treatment with the Peptide [48]: 65.47
- Suppression Ratio [48]: 72.38
- Expression Amount after Treatment with the Peptide [49]: 2.5
- Suppression Ratio [49]: 42.45
- Expression Amount after Treatment with the Peptide (Suppressed Gene, Immune System Gene, Gene No. 11651, implantation-associated protein (DKFZp564K142)): 12.84
